Data from US10766869B2, “Triazoles for the treatment of demyelinating dieases” (Vertex Pharmaceuticals Incorporated, priority 2015, dated 2020).

Tested on: primary rat mixed cortical cells
Test: In vitro myelination assay (MBP positive myelin strands, fold myelin pixels above background)
Format: cell-based
Settings: Rattus norvegicus, relative to baseline of no added compound, read-out: Fold myelin pixels above background; for fold induction at 1 µM: 1.0 μM compound; for fold induction at 10 µM: 10.0 μM compound
Outline: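 Compounds at 1.0 and 10.0 μM were incubated 14 days with dissociated P1 rat cortical cells, which were then fixed and immunostained for MBP. Myelination was scored as fold MBP myelin pixels per well over the no-compound baseline.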

SMILES	fold induction at 1 µM	fold induction at 10 µM
Cc1cc(Nc2ncn(-c3ccc(F)cc3)n2)cc(N2CCN(C3COC3)CC2)c1 [Compound 622, 1-(4-fluorophenyl)-N-[3-methyl-5-[4-(oxetan-3-yl)piperazin-1-yl]phenyl]-1,2,4-triazol-3-amine]	1 to 10	1 to 10
COc1ccc(-n2cnc(Nc3cc(C)cc(N4CCN(C5COC5)CC4)c3)n2)cc1F [Compound 624, 1-(3-fluoro-4-methoxy-phenyl)-N-[3-methyl-5-[4-(oxetan-3-yl)piperazin-1-yl]phenyl]-1,2,4-triazol-3-amine]	10 to 100	≤ 1
COCc1cc(Nc2ncn(-c3cccc(C(F)(F)F)c3)n2)nc(N2CCN(C3COC3)CC2)c1 [Compound 625, 4-(methoxymethyl)-6-[4-(oxetan-3-yl)piperazin-1-yl]-N-[1-[3-(trifluoromethyl)phenyl]-1,2,4-triazol-3-yl]pyridin-2-amine]	1 to 10	10 to 100
CC(=O)N1CCC(Oc2cc(C)cc(Nc3ncn(-c4ccc(F)c(F)c4)n3)c2)CC1 [Compound 626, 1-[4-[3-[[1-(3,4-difluorophenyl)-1,2,4-triazol-3-yl]amino]-5-methyl-phenoxy]-1-piperidyl]ethanone]	10 to 100	≤ 1
Cc1cc(Nc2ncn(-c3ccc(F)c(F)c3)n2)cc(OCC2CCOCC2)c1 [Compound 627, 1-(3,4-difluorophenyl)-N-[3-methyl-5-(tetrahydropyran-4-ylmethoxy)phenyl]-1,2,4-triazol-3-amine]	1 to 10	10 to 100
Cc1cc(Nc2ncn(-c3cc(F)cc(F)c3)n2)cc(N2C[C@H]3C[C@@H]2CO3)c1 [Compound 628, 1-(3,5-difluorophenyl)-N-[3-methyl-5-[(1R,4R)-2-oxa-5-azabicyclo[2.2.1]heptan-5-yl]phenyl]-1,2,4-triazol-3-amine]	10 to 100	1 to 10
Cc1cc(Nc2ncn(-c3cc(F)cc(F)c3)n2)cc(C2CN(C3COC3)C(C)CO2)c1 (centres unmarked) [Compound 629, 1-(3,5-difluorophenyl)-N-[3-methyl-5-[5-methyl-4-(oxetan-3-yl)morpholin-2-yl]phenyl]-1,2,4-triazol-3-amine]	10 to 100	≤ 1
Cc1cc(CN2CCN(C3COC3)CC2)c(F)c(Nc2ncn(-c3cc(F)cc(F)c3)n2)c1 [Compound 630, 1-(3,5-difluorophenyl)-N-[2-fluoro-5-methyl-3-[[4-(oxetan-3-yl)piperazin-1-yl]methyl]phenyl]-1,2,4-triazol-3-amine]	1 to 10	1 to 10
Cc1cc(Nc2ncn(-c3cc(F)cc(F)c3)n2)nc(C2=CCNCC2)c1 [Compound 631, N-[1-(3,5-difluorophenyl)-1,2,4-triazol-3-yl]-4-methyl-6-(1,2,3,6-tetrahydropyridin-4-yl)pyridin-2-amine]	1 to 10	1 to 10
Cc1cc(Nc2ncn(-c3ccc(F)c(F)c3)n2)cc(N2CCN(C3(C)COC3)CC2)c1 [Compound 633, 1-(3,4-difluorophenyl)-N-[3-methyl-5-[4-(3-methyloxetan-3-yl)piperazin-1-yl]phenyl]-1,2,4-triazol-3-amine]	10 to 100	10 to 100
Cc1cc(Nc2ncn(-c3cc(F)cc(F)c3)n2)cc(N2CC(N3CCCCC3)C2)c1 [Compound 634, 1-(3,5-difluorophenyl)-N-[3-methyl-5-[3-(1-piperidyl)azetidin-1-yl]phenyl]-1,2,4-triazol-3-amine]	10 to 100	10 to 100
Cc1cc(Nc2ncn(-c3cc(F)cc(F)c3)n2)cc(OC2CCCOC2)c1 (centres unmarked) [Compound 635, 1-(3,5-difluorophenyl)-N-(3-methyl-5-tetrahydropyran-3-yloxy-phenyl)-1,2,4-triazol-3-amine]	10 to 100	1 to 10
FC(F)c1cccc(-n2cnc(Nc3cc(C(F)(F)F)cc(N4CC(N5CCOCC5)C4)n3)n2)c1 [Compound 636, N-[1-[3-(difluoromethyl)phenyl]-1,2,4-triazol-3-yl]-6-(3-morpholinoazetidin-1-yl)-4-(trifluoromethyl)pyridin-2-amine]	1 to 10	1 to 10
Cc1cc(Nc2ncn(-c3cc(F)cc(F)c3)n2)cc(N2CCCN(C3COC3)CC2)c1 [Compound 637, 1-(3,5-difluorophenyl)-N-[3-methyl-5-[4-(oxetan-3-yl)-1,4-diazepan-1-yl]phenyl]-1,2,4-triazol-3-amine]	100 to 1000	≤ 1
Cc1cc(Nc2ncn(-c3ccc(F)c(F)c3)n2)cc(OC2CCCOC2)c1 (centres unmarked) [Compound 638, 1-(3,4-difluorophenyl)-N-(3-methyl-5-tetrahydropyran-3-yloxy-phenyl)-1,2,4-triazol-3-amine]	10 to 100	10 to 100
COc1cc(Nc2ncn(-c3cccc(C(F)F)c3)n2)nc(N2CCN(C3COC3)CC2)c1 [Compound 639, N-[1-[3-(difluoromethyl)phenyl]-1,2,4-triazol-3-yl]-4-methoxy-6-[4-(oxetan-3-yl)piperazin-1-yl]pyridin-2-amine]	1 to 10	1 to 10
Cc1cc(Nc2ncn(-c3ccc(F)c(F)c3)n2)cc(OCC2CC(F)(F)C2)c1 [Compound 640, N-[3-[(3,3-difluorocyclobutyl)methoxy]-5-methyl-phenyl]-1-(3,4-difluorophenyl)-1,2,4-triazol-3-amine]	10 to 100	1 to 10
Cc1c(Nc2ncn(-c3cc(F)cc(F)c3)n2)cc(N2CC(N3CCOCC3)C2)cc1OC(C)C [Compound 641, 1-(3,5-difluorophenyl)-N-[3-isopropoxy-2-methyl-5-(3-morpholinoazetidin-1-yl)phenyl]-1,2,4-triazol-3-amine]	10 to 100	1 to 10
Fc1cc(Nc2ncn(-c3ccccn3)n2)cc(N2CCN(C3COC3)CC2)c1 [Compound 642, N-[3-fluoro-5-[4-(oxetan-3-yl)piperazin-1-yl]phenyl]-1-(2-pyridyl)-1,2,4-triazol-3-amine]	1 to 10	10 to 100
Cc1cc(Nc2ncn(-c3ccccc3)n2)cc(Nc2nccs2)c1 [Compound 643, 5-methyl-N3-(1-phenyl-1,2,4-triazol-3-yl)-N1-thiazol-2-yl-benzene-1,3-diamine]	10 to 100	≤ 1
Cc1cc(Nc2ncn(-c3cccc(C(F)(F)F)c3)n2)cc(OCCn2cccn2)c1 [Compound 644, N-[3-methyl-5-(2-pyrazol-1-ylethoxy)phenyl]-1-[3-(trifluoromethyl)phenyl]-1,2,4-triazol-3-amine]	1 to 10	10 to 100
COCC1CCN(c2cc(C(F)F)cc(Nc3ncn(-c4cccc(C(F)F)c4)n3)n2)CC1 [Compound 645, 4-(difluoromethyl)-N-[1-[3-(difluoromethyl)phenyl]-1,2,4-triazol-3-yl]-6-[4-(methoxymethyl)-1-piperidyl]pyridin-2-amine]	1 to 10	10 to 100
